ChEMBL document CHEMBL3885881, “DrugMatrix”

Organism: Rattus norvegicus
Assay: DrugMatrix - Regimen: Daily Repeat
Assay type: toxicity, organism-based, Sprague-Dawley
Set-up: regimen Daily Repeat, gender Male, age 6-8 weeks
Details: in vivo, ip, 0 mg/kg, route intraperitoneal, dose level Control, vehicle 100 % SALINE; for ABSOLUTE BASOPHIL / ABSOLUTE EOSINOPHIL / ABSOLUTE LYMPHOCYTE / ABSOLUTE MONOCYTE / ABSOLUTE SEGMENTED NEUTROPHIL / BASOPHIL / EOSINOPHIL / ERYTHROCYTE COUNT / HEMATOCRIT / HEMOGLOBIN / LEUKOCYTE COUNT / LYMPHOCYTE / MEAN CORPUSCULAR HEMOGLOBIN / MEAN CORPUSCULAR HEMOGLOBIN CONCENTRATION / MEAN CORPUSCULAR VOLUME / MONOCYTE / NEUTROPHIL / PLATELET COUNT: tissue Blood
[1] = 120 h, tissue Plasma, time 5 day
[2] = […], tissue Plasma, time 14 day
[3] = […], tissue Plasma, time 28 day

## TRANSPLATIN
120 h, time 5 day
  ABSOLUTE BASOPHIL: 32 cells/µL
  ABSOLUTE EOSINOPHIL: 110 cells/µL
  ABSOLUTE LYMPHOCYTE: 6630 cells/µL
  ABSOLUTE MONOCYTE: 140 cells/µL
  ABSOLUTE SEGMENTED NEUTROPHIL: 1170 cells/µL
  BASOPHIL: 0.38%
  EOSINOPHIL: 1.28%
  ERYTHROCYTE COUNT: 7.45 x10E6/uL
  HEMATOCRIT: 45.74%
  HEMOGLOBIN: 14.72 G/DL
  LEUKOCYTE COUNT: 8.11 x10E3/uL
  LYMPHOCYTE: 81.3%
  MEAN CORPUSCULAR HEMOGLOBIN: 19.76 pg
  MEAN CORPUSCULAR HEMOGLOBIN CONCENTRATION: 32.16 G/DL
  MEAN CORPUSCULAR VOLUME: 61.38 fL
  MONOCYTE: 1.76%
  NEUTROPHIL: 14.9%
  PLATELET COUNT: 1322.4 x10E3/uL
[1]
  ALANINE AMINOTRANSFERASE: 25.8 u/L
  ALBUMIN: 3.64 G/DL
  ASPARTATE AMINOTRANSFERASE: 81.4 u/L
  BLOOD UREA NITROGEN: 14.4 mg/dL
  CHOLESTEROL: 69.2 mg/dL
  CREATINE PHOSPHOKINASE: 303.2 u/L
  CREATININE: 0.56 mg/dL
  GLUCOSE: 125.4 mg/dL
  LACTATE DEHYDROGENASE: 105.4 u/L
  LIPASE: 22.4 u/L
  POTASSIUM: 5.52 MEQ/L
  SODIUM: 147 MEQ/L
  TOTAL BILIRUBIN: 0.2 mg/dL
  TOTAL PROTEIN: 6.1 G/DL
  URIC ACID: 1.06 mg/dL
[…], time 14 day
  ABSOLUTE BASOPHIL: 130 cells/µL
  ABSOLUTE EOSINOPHIL: 140 cells/µL
  ABSOLUTE LYMPHOCYTE: 13500 cells/µL
  ABSOLUTE MONOCYTE: 400 cells/µL
  ABSOLUTE SEGMENTED NEUTROPHIL: 2330 cells/µL
  BASOPHIL: 0.72%
  EOSINOPHIL: 0.86%
  ERYTHROCYTE COUNT: 7.74 x10E6/uL
  HEMATOCRIT: 45.98%
  LEUKOCYTE COUNT: 16.61 x10E3/uL
  LYMPHOCYTE: 81.34%
  MEAN CORPUSCULAR HEMOGLOBIN: 18 pg
  MEAN CORPUSCULAR HEMOGLOBIN CONCENTRATION: 30.22 G/DL
  MEAN CORPUSCULAR VOLUME: 59.4 fL
  MONOCYTE: 2.46%
  NEUTROPHIL: 14.14%
  PLATELET COUNT: 1445.5 x10E3/uL
[…], time 28 day
  ABSOLUTE BASOPHIL: 91 cells/µL
  ABSOLUTE EOSINOPHIL: 110 cells/µL
  ABSOLUTE LYMPHOCYTE: 9910 cells/µL
  ABSOLUTE MONOCYTE: 210 cells/µL
  ABSOLUTE SEGMENTED NEUTROPHIL: 1560 cells/µL
  BASOPHIL: 0.77%
  EOSINOPHIL: 0.92%
  ERYTHROCYTE COUNT: 8.21 x10E6/uL
  HEMATOCRIT: 47.53%
  HEMOGLOBIN: 15.65 G/DL
  LEUKOCYTE COUNT: 11.91 x10E3/uL
  LYMPHOCYTE: 83.34%
  MEAN CORPUSCULAR HEMOGLOBIN: 19.07 pg
  MEAN CORPUSCULAR HEMOGLOBIN CONCENTRATION: 32.93 G/DL
  MEAN CORPUSCULAR VOLUME: 57.9 fL
  MONOCYTE: 1.68%
  NEUTROPHIL: 12.97%
  PLATELET COUNT: 1323.8 x10E3/uL
[2]
  ALANINE AMINOTRANSFERASE: 31.6 u/L
  ALBUMIN: 3.66 G/DL
  ALKALINE PHOSPHATASE: 228.6 u/L
  ASPARTATE AMINOTRANSFERASE: 79.6 u/L
  BLOOD UREA NITROGEN: 11.2 mg/dL
  CHLORIDE: 107 MEQ/L
  CHOLESTEROL: 57 mg/dL
  CREATININE: 0.5 mg/dL
  GLUCOSE: 124.4 mg/dL
  LACTATE DEHYDROGENASE: 106.4 u/L
  LIPASE: 24.4 u/L
  PHOSPHORUS: 10.52 mg/dL
  POTASSIUM: 6.34 MEQ/L
  SODIUM: 149.2 MEQ/L
  TOTAL BILIRUBIN: 0.2 mg/dL
  TOTAL PROTEIN: 6.48 G/DL
  URIC ACID: 0.94 mg/dL
[3]
  ALANINE AMINOTRANSFERASE: 30 u/L
  ALBUMIN: 3.71 G/DL
  ALKALINE PHOSPHATASE: 186.8 u/L
  ASPARTATE AMINOTRANSFERASE: 78.2 u/L
  BLOOD UREA NITROGEN: 14.2 mg/dL
  CHOLESTEROL: 44.9 mg/dL
  CREATINE PHOSPHOKINASE: 334.3 u/L
  CREATININE: 0.6 mg/dL
  GLUCOSE: 147.2 mg/dL
  LACTATE DEHYDROGENASE: 123.1 u/L
  LIPASE: 9.6 u/L
  PHOSPHORUS: 10.01 mg/dL
  POTASSIUM: 6.57 MEQ/L
  SODIUM: 149.5 MEQ/L
  TOTAL BILIRUBIN: 0.21 mg/dL
  TOTAL PROTEIN: 6.66 G/DL
  URIC ACID: 1.26 mg/dL
